Laboratory results: patent US11230717B2, “Plants having increased tolerance to herbicides” (BASF SE, priority 2013, dated 2022)
“And” between values parts separate entries of the source, which are not always exact repeats. Equal values may be shown once.

Key:
Assay in all cases: HPPD activity assay, in vitro characterization of HPPD mutants
Assay type in all cases: biochemical
[1] = target: T1, Arabidopsis HPPD variant M335H, P336G, E363Q (Arabidopsis thaliana, UniProt P93836, E363Q/M335H/P336G); details: normalized to wildtype
T1 construct: His6 (N); made in house; host or cells: E. coli BL21 (DE3)
Method: (§1) HPPD produces homogentisic acid and CO2 from 4-hydroxyphenylpyruvate (4-HPP) and O2. The activity assay for HPPD is based on the analysis of homogentisic acid by reversed phase HPLC.
(§2) The assay mixture can contain 150 mM potassium phosphate buffer pH 7.0, 50 mM L-ascorbic acid, 100 μM Catalase (Sigma-Aldrich), 1 μM FeSO4 and 0.2 units of purified HPPD enzyme in a total volume of 505 μl. 1 unit is defined as the amount of enzyme that is required to produce 1 nmol of HGA per minute at 20° C.
(§3) After a preincubation of 30 min the reaction is started by adding 4-HPP to a final concentration of 0.05 mM. The reaction is allowed to proceed for 45 min at room temperature. The reaction is stopped by the addition of 50 μl of 4.5 M phosphoric acid. The sample is filtered using a […] pore size PVDF filtration device.
(§4) 5 μl of the cleared sample is analyzed on an UPLC HSS T3 column (particle size 1.8 μm, dimensions 2,1×50 mm; Waters) by isocratic elution using 90% 20 mM NaH2PO4 pH 2.2, 10% methanol (v/v).
(§5) HGA is detected electrochemically at 750 mV (mode: DC; polarity: positive) and quantified by integrating peak areas (Empower software; Waters).
(§6) Inhibitors are dissolved in DMSO (dimethylsulfoxide) to a concentration of 0.5 mM. From this stock solution serial five-fold dilutions are prepared in DMSO, which are used in the assay. The respective inhibitor solution accounts for 1% of the assay volume. […] Activities are normalized by setting the uninhibited enzyme activity to 100%. IC50 values are calculated using non-linear regression.
(§7) Purified, mutant HPPD enzymes are obtained by the methods described above. Dose response and kinetic measurements are carried out using the described HPPD activity assay. Apparent michaelis constants (Km) and maximal reaction velocities (Vmax) are calculated by non-linear regression with the software GraphPad Prism 5 (GraphPad Software, La Jolla, USA) using a substrate inhibition model. […] Weighted means (by standard error) of Km and IC50 values are calculated from at least three independent experiments.
(§8) Field performance of the optimized HPPD enzyme, which is used as a herbicide tolerance trait may depend not only on its lack of sensitivity towards HPPD inhibiting herbicides but also on its activity. To assess the potential performance of a herbicide tolerance trait a tolerance index (TI) is calculated using the following formula: […]

[2] = target: T2, Hordeum HPPD variant R309K (Hordeum vulgare, UniProt O48604, A164G/R146V/R147D/R148G/R309K); details: normalized to wild-type
T2 construct: His (N); made in house; host or cells: E. coli BL21 (DE3)
Method: as §1, §2, §3, §4, §5, §6, §7, §8

[3] = target: T3, Arabidopsis HPPD variant M335H, P336A (Arabidopsis thaliana, UniProt P93836, M335H/P336A); details: normalized to wildtype
T3 construct: His6 (N); made in house; host or cells: E. coli BL21 (DE3)
Method: as §1, §2, §3, §4, §5, §6, §7, §8

[4] = target: T4, Hordeum HPPD variant F377L (Hordeum vulgare, UniProt O48604, A164G/F377L/R146V/R147D/R148G); details: normalized to wild-type
T4 construct: His (N); made in house; host or cells: E. coli BL21 (DE3)
Method: as §1, §2, §3, §4, §5, §6, §7, §8

[5] = target: T5, Hordeum HPPD variant S252T (Hordeum vulgare, UniProt O48604, A164G/R146V/R147D/R148G/S252T); details: normalized to wild-type
T5 construct: His (N); made in house; host or cells: E. coli BL21 (DE3)
Method: as §1, §2, §3, §4, §5, §6, §7, §8

[6] = target: T6, Arabidopsis HPPD variant F381L (Arabidopsis thaliana, UniProt P93836, F381L); details: normalized to wildtype
T6 construct: His6 (N); made in house; host or cells: E. coli BL21 (DE3)
Method: as §1, §2, §3, §4, §5, §6, §7, §8

[7] = target: T7, Hordeum HPPD variant L353M, P321R, L320N (Hordeum vulgare, UniProt O48604, L320N/L353M/P321R); details: normalized to wild-type
T7 construct: His (N); made in house; host or cells: E. coli BL21 (DE3)
Method: as §1, §2, §3, §4, §5, §6, §7, §8

[8] = target: T8, Arabidopsis HPPD variant M335H, P336G (Arabidopsis thaliana, UniProt P93836, M335H/P336G); details: normalized to wildtype
T8 construct: His6 (N); made in house; host or cells: E. coli BL21 (DE3)
Method: as §1, §2, §3, §4, §5, §6, §7, §8

[9] = target: T9, Hordeum HPPD variant L320H (Hordeum vulgare, UniProt O48604, A164G/L320H/R146V/R147D/R148G); details: normalized to wild-type
T9 construct: His (N); made in house; host or cells: E. coli BL21 (DE3)
Method: as §1, §2, §3, §4, §5, §6, §7, §8

[10] = target: T10, Hordeum HPPD variant L250M (Hordeum vulgare, UniProt O48604, A164G/L250M/R146V/R147D/R148G); details: normalized to wild-type
T10 construct: His (N); made in house; host or cells: E. coli BL21 (DE3)
Method: as §1, §2, §3, §4, §5, §6, §7, §8

[11] = target: T11, Hordeum HPPD variant F404L (Hordeum vulgare, UniProt O48604, A164G/F404L/R146V/R147D/R148G); details: normalized to wild-type
T11 construct: His (N); made in house; host or cells: E. coli BL21 (DE3)
Method: as §1, §2, §3, §4, §5, §6, §7, §8

[12] = target: T12, Hordeum HPPD variant L320H, P321A (Hordeum vulgare, UniProt O48604, L320H/P321A); details: normalized to wild-type
T12 construct: His (N); made in house; host or cells: E. coli BL21 (DE3)
Method: as §1, §2, §3, §4, §5, §6, §7, §8

T9 sequence (O48604 whole entry R146V/R147D/R148G/A164G/L320H): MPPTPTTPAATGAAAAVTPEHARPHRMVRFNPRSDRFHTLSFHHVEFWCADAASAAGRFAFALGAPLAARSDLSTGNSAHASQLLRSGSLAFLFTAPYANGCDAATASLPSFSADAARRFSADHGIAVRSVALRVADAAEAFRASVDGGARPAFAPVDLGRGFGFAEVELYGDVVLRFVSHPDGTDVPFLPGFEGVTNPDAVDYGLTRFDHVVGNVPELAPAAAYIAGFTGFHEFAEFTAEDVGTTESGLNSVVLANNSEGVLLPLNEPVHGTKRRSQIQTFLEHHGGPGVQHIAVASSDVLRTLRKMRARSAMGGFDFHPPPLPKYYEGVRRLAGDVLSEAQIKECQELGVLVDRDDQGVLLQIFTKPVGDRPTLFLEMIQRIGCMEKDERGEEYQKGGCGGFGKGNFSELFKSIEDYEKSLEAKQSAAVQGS
T6 sequence (P93836 whole entry F381L): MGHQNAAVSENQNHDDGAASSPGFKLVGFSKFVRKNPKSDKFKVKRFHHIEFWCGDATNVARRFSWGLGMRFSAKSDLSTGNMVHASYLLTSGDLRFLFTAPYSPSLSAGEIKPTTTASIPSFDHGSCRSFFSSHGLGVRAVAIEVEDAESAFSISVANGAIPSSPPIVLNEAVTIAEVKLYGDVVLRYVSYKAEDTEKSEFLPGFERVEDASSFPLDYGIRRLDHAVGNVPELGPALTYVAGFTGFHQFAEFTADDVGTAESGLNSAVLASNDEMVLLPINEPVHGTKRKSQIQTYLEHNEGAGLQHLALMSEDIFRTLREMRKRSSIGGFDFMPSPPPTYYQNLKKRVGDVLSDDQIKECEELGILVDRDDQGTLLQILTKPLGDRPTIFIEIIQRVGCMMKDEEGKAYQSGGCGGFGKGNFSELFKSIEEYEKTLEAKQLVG
T8 sequence (P93836 whole entry M335H/P336G): as the sequence (P93836 whole entry F381L) above, with M335H, P336G, L381F counted along it
T3 sequence (P93836 whole entry M335H/P336A): as the sequence (P93836 whole entry F381L) above, with M335H, P336A, L381F counted along it
T10 sequence (O48604 whole entry R146V/R147D/R148G/A164G/L250M): as the sequence (O48604 whole entry R146V/R147D/R148G/A164G/L320H) above, with L250M, H320L counted along it
T5 sequence (O48604 whole entry R146V/R147D/R148G/A164G/S252T): as the sequence (O48604 whole entry R146V/R147D/R148G/A164G/L320H) above, with S252T, H320L counted along it
T2 sequence (O48604 whole entry R146V/R147D/R148G/A164G/R309K): as the sequence (O48604 whole entry R146V/R147D/R148G/A164G/L320H) above, with R309K, H320L counted along it
T4 sequence (O48604 whole entry R146V/R147D/R148G/A164G/F377L): as the sequence (O48604 whole entry R146V/R147D/R148G/A164G/L320H) above, with H320L, F377L counted along it
T1 sequence (P93836 whole entry M335H/P336G/E363Q): as the sequence (P93836 whole entry F381L) above, with M335H, P336G, E363Q, L381F counted along it
T12 sequence (O48604 whole entry R146V/R147D/R148G/A164G/L320H/P321A): as the sequence (O48604 whole entry R146V/R147D/R148G/A164G/L320H) above, with P321A counted along it
T11 sequence (O48604 whole entry R146V/R147D/R148G/A164G/F404L): as the sequence (O48604 whole entry R146V/R147D/R148G/A164G/L320H) above, with H320L, F404L counted along it
T7 sequence (O48604 whole entry R146V/R147D/R148G/A164G/L320N/P321R/L353M): as the sequence (O48604 whole entry R146V/R147D/R148G/A164G/L320H) above, with H320N, P321R, L353M counted along it

Compound | Normalized tolerance index (TI) [1] | Normalized tolerance index (TI) [2] | Normalized tolerance index (TI) [3] | Normalized tolerance index (TI) [4] | Normalized tolerance index (TI) [5] | Normalized tolerance index (TI) [6] | Normalized tolerance index (TI) [7] | Normalized tolerance index (TI) [8] | Normalized tolerance index (TI) [9] | Normalized tolerance index (TI) [10] | Normalized tolerance index (TI) [11] | Normalized tolerance index (TI) [12]
Cn1nnnc1NC(=O)c1c(F)cc(Cl)c(S(C)(=O)=O)c1Cl [Inhibitor 1, 2,4-dichloro-6-fluoro-3-methylsulfonyl-N-(1-methyltetrazol-5-yl)benzamide] | 0.2 | 2.6 | 0.6 | 11.8 | 1.8 | 1.2 | 1.9 | 0.5 | 4 and 4.6 | 3.1 | 1.6 | 3.7
CSc1c(Cl)cc(F)c(C(=O)Nc2ncnn2C)c1Cl [Inhibitor 3, 2,4-dichloro-6-fluoro-3-methylsulfanyl-N-(2-methyl-1,2,4-triazol-3-yl)benzamide] | 0.3 | 3 | 0.2 | 2 | 11.1 | 0.2 | 0.9 | 0.1 | 1.9 | 1 | 1.8 | 14.3
